Values after ≈ are worked out from the molar mass of the structure shown.
These molecules were tested on Human rhinovirus sp. (assay: Compound was tested for minimum inhibitory concentration against human rhinovirus 14 (HRV14)).
Format: functional
With `Cc1cc(CCCCCCCOc2ccc(C3=NC[C@@H](C)O3)cc2)on1` the MIC was 0.03 µM (≈ 0.0107 µg/mL). Work on `Cc1cc(CCCCCCCOc2ccc(C3=NC[C@@H](C)O3)cc2Cl)on1` yielded an MIC of 0.2 µM (≈ 0.0782 µg/mL). For `CC[C@@H]1CN=C(c2ccc(OCCCCCCCc3cc(C)no3)cc2)O1`, the MIC was 0.02 µM (≈ 0.00741 µg/mL). For `Cc1cc(CCCCCOc2ccc(C3=NCCO3)cc2)on1`, the MIC was 0.5 µM (≈ 0.157 µg/mL). Work on `Cc1cc(CCCCCOc2ccc(C3=NC[C@@H](C)O3)cc2)on1` yielded an MIC of 0.6 µM (≈ 0.197 µg/mL). `Cc1cc(CCCCCOc2ccc(C3=NCCO3)cc2Cl)on1` was tested, and the MIC was 2.4 µM (≈ 0.837 µg/mL). `Cc1cc(CCCCCCCOc2ccc(C3=NC[C@H](C)O3)cc2)on1` showed an MIC of 0.4 µM (≈ 0.143 µg/mL). `Cc1cc(CCCCCCCOc2ccc(C3=NCCO3)cc2)on1` [DISOXARIL] gave an MIC of 0.6 µM (≈ 0.205 µg/mL).

These molecules were tested on Nucleic Acid (assay: Compound was tested for the inhibition of Rev-RBE RNA complex formation).
Format: functional
`NC[C@@H]1O[C@@H](O[C@H]2[C@H](O)[C@@H](O[C@H]3O[C@H](CO)[C@@H](O)[C@H](N)[C@H]3O)[C@H](N)C[C@@H]2N)[C@@H](O)[C@H](O)[C@H]1O` was tested, and the MIC was greater than 100 µM. `NC[C@H]1O[C@H](O[C@H]2[C@H](O)[C@@H](O)[C@H](N)C[C@@H]2N)[C@H](N)[C@@H](O)[C@@H]1O` was tested, and the MIC was greater than 100 µM. In the case of `CN[C@@H]1[C@@H](O)[C@@H](O[C@@H]2[C@@H](O)[C@H](O[C@H]3OC(CN)=CC[C@H]3N)[C@@H](N)C[C@H]2N)OC[C@]1(C)O`, the MIC is reported as greater than 100 µM. `CNC1C(O)C(OC2C(N)CC(N)C(OC3OC(CN)CCC3N)C2O)OCC1(C)O` (stereo not drawn) showed an MIC of 100 µM (≈ 45 µg/mL). `NC[C@H]1O[C@H](O[C@H]2[C@H](O[C@@H]3O[C@H](CO)[C@@H](O)[C@H]3O)[C@@H](O)[C@H](N)C[C@@H]2N)[C@H](N)[C@@H](O)[C@@H]1O` showed an MIC of 100 µM (≈ 45.4 µg/mL). Molecule `NC[C@@H]1O[C@H](O[C@H]2[C@@H](O)[C@H](O[C@@H]3[C@@H](O)[C@H](N)C[C@H](N)[C@H]3O[C@H]3O[C@H](CO)[C@@H](O)[C@H](O)[C@H]3N)O[C@@H]2CO)[C@H](N)[C@@H](O)[C@@H]1O` has an MIC greater than 100 µM. With `NC[C@@H]1O[C@H](O[C@H]2[C@@H](O)[C@H](O[C@@H]3[C@@H](O)[C@H](N)C[C@H](N)[C@H]3O[C@H]3O[C@H](CO)[C@@H](O)C[C@H]3N)O[C@@H]2CO)[C@H](N)[C@@H](O)[C@@H]1O[C@H]1O[C@H](CO)[C@@H](O)[C@H](O)[C@@H]1O` the MIC was 10 µM (≈ 7.62 µg/mL). Work on `NC[C@@H]1O[C@H](O[C@H]2[C@@H](O)[C@H](O[C@@H]3[C@@H](O)[C@H](N)C[C@H](N)[C@H]3O[C@H]3O[C@H](CN)[C@@H](O)[C@H](O)[C@H]3N)O[C@@H]2CO)[C@H](N)[C@@H](O)[C@@H]1O` yielded an MIC of 1 µM (≈ 0.615 µg/mL). With `NC[C@H]1O[C@H](O[C@H]2[C@H](O)[C@@H](O[C@H]3O[C@H](CO)[C@@H](O)[C@H](N)[C@H]3O)[C@H](N)C[C@@H]2N)[C@H](N)C[C@@H]1O` the MIC was 10 µM (≈ 4.68 µg/mL). With `NC[C@H]1O[C@H](O[C@H]2[C@H](O)[C@@H](O[C@H]3O[C@H](CO)[C@@H](O)[C@H](N)[C@H]3O)[C@H](N)C[C@@H]2N)[C@H](N)[C@@H](O)[C@@H]1O` the MIC was 100 µM (≈ 48.4 µg/mL).

From ChEMBL document CHEMBL1131109, “Modeling RNA-ligand interactions: the Rev-binding element RNA-aminoglycoside complex” (1998)
